# In PubChem BioAssay AID1963444 (Molecular Pharmacology Branch, DTP, NCI, 2024):
# Test system: HSSY-II complex spheroid growth, percent test/control
# Experiment: Anticancer human tumor HSSY-II cell line growth inhibition [Asc];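 also: spheroids exposed to drug for 7 days before reading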
# Conditions: for IC50: curve of first compound; for viability, T/C: stronger effect = lower value
# How it was run: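 Concentration series start at each agent's clinical Cmax, or at 10 microM when none is established, and drop in half-log steps; agents are applied alone or together to complex spheroids built with HUVEC and hMSC.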
compound,measurement,setting,value
C#Cc1c(F)ccc2cc(O)cc(-c3ncc4c(N5CC6CCC(C5)N6)nc(OCC56CCCN5CC(F)C6)nc4c3F)c12 (stereo not given) + Cc1c(S(C)(=O)=O)c(-c2cc(F)cc(N3CCN(c4ccc(NS(=O)(=O)c5ccc(NC(CCN6CCC(C(=O)OCCCP(=O)(O)O)CC6)CSc6ccccc6)c(S(=O)(=O)C(F)(F)F)c5)cc4)CC3)c2)c(-c2ccc(Cl)cc2)n1C(C)C,IC50,second compound 0.1 µM,8.63 µM
same,IC50,second compound 0.316 µM,6.03 µM
same,IC50,second compound 1 µM,5.88 µM
same,IC50,second compound 3.16 µM,5.43 µM
same,IC50,second compound 10 µM,5.95 µM
same,"viability, T/C","second compound 0.1 µM, first compound 0.0316 µM",103%
same,"viability, T/C","second compound 0.1 µM, first compound 0.1 µM",99.5%
same,"viability, T/C","second compound 0.1 µM, first compound 0.316 µM",99.6%
same,"viability, T/C","second compound 0.1 µM, first compound 1 µM",102%
same,"viability, T/C","second compound 0.1 µM, first compound 3.16 µM",87.8%
same,"viability, T/C","second compound 0.1 µM, first compound 10 µM",44%
same,"viability, T/C","second compound 0.316 µM, first compound 0.0316 µM",108%
same,"viability, T/C","second compound 0.316 µM, first compound 0.1 µM",117%
same,"viability, T/C","second compound 0.316 µM, first compound 0.316 µM",110%
same,"viability, T/C","second compound 0.316 µM, first compound 1 µM",105%
same,"viability, T/C","second compound 0.316 µM, first compound 3.16 µM",82%
same,"viability, T/C","second compound 0.316 µM, first compound 10 µM",25%
same,"viability, T/C","second compound 1 µM, first compound 0.0316 µM",102%
same,"viability, T/C","second compound 1 µM, first compound 0.1 µM",105%
same,"viability, T/C","second compound 1 µM, first compound 0.316 µM",109%
same,"viability, T/C","second compound 1 µM, first compound 1 µM",105%
same,"viability, T/C","second compound 1 µM, first compound 3.16 µM",96.8%
same,"viability, T/C","second compound 1 µM, first compound 10 µM",9.87%
same,"viability, T/C","second compound 3.16 µM, first compound 0.0316 µM",108%
same,"viability, T/C","second compound 3.16 µM, first compound 0.1 µM",115%
same,"viability, T/C","second compound 3.16 µM, first compound 0.316 µM",94.3%
same,"viability, T/C","second compound 3.16 µM, first compound 1 µM",101%
same,"viability, T/C","second compound 3.16 µM, first compound 3.16 µM",83.7%
same,"viability, T/C","second compound 3.16 µM, first compound 10 µM",13.2%
same,"viability, T/C","second compound 10 µM, first compound 0.0316 µM",105%
same,"viability, T/C","second compound 10 µM, first compound 0.1 µM",95.2%
same,"viability, T/C","second compound 10 µM, first compound 0.316 µM",92.6%
same,"viability, T/C","second compound 10 µM, first compound 1 µM",97.8%
same,"viability, T/C","second compound 10 µM, first compound 3.16 µM",74.9%
same,"viability, T/C","second compound 10 µM, first compound 10 µM",29.4%
Cc1nc(N2CCC3(CC2)COC(C)C3N)c(CO)nc1Sc1ccnc(N)c1Cl (stereo not given) + Cc1c(S(C)(=O)=O)c(-c2cc(F)cc(N3CCN(c4ccc(NS(=O)(=O)c5ccc(NC(CCN6CCC(C(=O)OCCCP(=O)(O)O)CC6)CSc6ccccc6)c(S(=O)(=O)C(F)(F)F)c5)cc4)CC3)c2)c(-c2ccc(Cl)cc2)n1C(C)C,IC50,second compound 0.1 µM,> 3 µM
same,IC50,second compound 0.316 µM,> 3 µM
same,IC50,second compound 1 µM,> 3 µM
same,IC50,second compound 3.16 µM,> 3 µM
same,IC50,second compound 10 µM,> 3 µM
same,"viability, T/C","second compound 0.1 µM, first compound 0.00949 µM",79.8%
same,"viability, T/C","second compound 0.1 µM, first compound 0.03 µM",83.8%
same,"viability, T/C","second compound 0.1 µM, first compound 0.0949 µM",88.9%
same,"viability, T/C","second compound 0.1 µM, first compound 0.3 µM",78.8%
same,"viability, T/C","second compound 0.1 µM, first compound 0.949 µM",84.9%
same,"viability, T/C","second compound 0.1 µM, first compound 3 µM",60.2%
same,"viability, T/C","second compound 0.316 µM, first compound 0.00949 µM",59.4%
same,"viability, T/C","second compound 0.316 µM, first compound 0.03 µM",71.4%
same,"viability, T/C","second compound 0.316 µM, first compound 0.0949 µM",60.7%
same,"viability, T/C","second compound 0.316 µM, first compound 0.3 µM",79.1%
same,"viability, T/C","second compound 0.316 µM, first compound 0.949 µM",65.3%
same,"viability, T/C","second compound 0.316 µM, first compound 3 µM",61.7%
same,"viability, T/C","second compound 1 µM, first compound 0.00949 µM",68.1%
same,"viability, T/C","second compound 1 µM, first compound 0.03 µM",66.1%
same,"viability, T/C","second compound 1 µM, first compound 0.0949 µM",78.5%
same,"viability, T/C","second compound 1 µM, first compound 0.3 µM",51.7%
same,"viability, T/C","second compound 1 µM, first compound 0.949 µM",67.5%
same,"viability, T/C","second compound 1 µM, first compound 3 µM",59.2%
same,"viability, T/C","second compound 3.16 µM, first compound 0.00949 µM",64.1%
same,"viability, T/C","second compound 3.16 µM, first compound 0.03 µM",53.9%
same,"viability, T/C","second compound 3.16 µM, first compound 0.0949 µM",65%
same,"viability, T/C","second compound 3.16 µM, first compound 0.3 µM",58.1%
same,"viability, T/C","second compound 3.16 µM, first compound 0.949 µM",63.3%
same,"viability, T/C","second compound 3.16 µM, first compound 3 µM",62.2%
same,"viability, T/C","second compound 10 µM, first compound 0.00949 µM",50.7%
same,"viability, T/C","second compound 10 µM, first compound 0.03 µM",64.1%
same,"viability, T/C","second compound 10 µM, first compound 0.0949 µM",62.7%
same,"viability, T/C","second compound 10 µM, first compound 0.3 µM",48.3%
same,"viability, T/C","second compound 10 µM, first compound 0.949 µM",51.3%
same,"viability, T/C","second compound 10 µM, first compound 3 µM",54.6%
